Measured values taken from ChEMBL document CHEMBL3044657, “Identification of an antiepileptic lead compound with a more selective activity and its analogues for GABA-AT using in silico approach” (2013).
Calls of active or inactive are those of the source. No cut-off for these calls is given here.

Each molecule was assayed on Mus musculus (assay: Antiepileptic activity in Mus musculus (mouse) assessed as protection against maximal electroshock-induced seizures at 300 mg/kg after 0.5 hr). Settings: not given.
Format: functional, organism-based
Set-up: dose 300 mg/kg
C/C(=N\NC(=O)Nc1ccc(Br)cc1)c1ccc(C)cc1 was tested, and the Activity was “inactive”.
In the case of CCNC(=S)Nc1ccc(S(=O)(=O)Nc2nc3ccc(Cl)cc3s2)cc1, the Activity was “inactive”.
For CNC(=S)Nc1ccc(S(=O)(=O)Nc2nc3ccc(Cl)cc3s2)cc1, the Activity was “inactive”.

Organism: Mus musculus
Experiment: Antiepileptic activity in Mus musculus (mouse) assessed as minimum dose required to protect half or more number of animals against maximal electroshock-induced seizures after 0.5 hr
Format: functional
Settings: read-out: MED
Cc1ccc(NC(=S)Nc2ccc(S(=O)(=O)Nc3ccc(C)cc3)cc2)cc1 was tested, and the minimal effective dose was 300 mg/kg.
In the case of c1ccc(NC2=NSC(Nc3ccccn3)N2)nc1 (centres undefined), the minimal effective dose was 300 mg/kg.
With CCOc1ccc(NC(=O)N/N=C(\C)CC(C)=O)cc1 the minimal effective dose was 100 mg/kg.
Molecule C/C(=N\NC(=O)Nc1ccc(Br)cc1)c1ccc(N)cc1 has a minimal effective dose of 300 mg/kg.
With O=C(N/N=C/c1ccccc1[N+](=O)[O-])Nc1ccc(Br)cc1 the minimal effective dose was 300 mg/kg.
With O=c1snc(Nc2cccnc2)n1-c1cccnc1 the minimal effective dose was 300 mg/kg.
CCOc1ccc(NC(=O)N/N=C(\C)c2ccc(Cl)cc2)cc1 gave a minimal effective dose of 300 mg/kg.
CC(C)=NNC(=O)Nc1ccc([N+](=O)[O-])cc1 was tested, and the minimal effective dose was 300 mg/kg.
Molecule c1cc(NC2=NSC(Nc3ccncc3)N2)ccn1 (centres undefined) has a minimal effective dose of 300 mg/kg.
Work on CCNC(=S)Nc1ccc(S(=O)(=O)Nc2nc3ccc(F)cc3s2)cc1 yielded a minimal effective dose of 300 mg/kg.
CNC(=S)Nc1ccc(S(=O)(=O)Nc2nc3ccc(F)cc3s2)cc1 gave a minimal effective dose of 300 mg/kg.
In the case of COc1cc(/C=N/NC(=O)Nc2ccc(Br)cc2)ccc1O, the minimal effective dose was 300 mg/kg.
O=c1snc(Nc2ccc(F)cc2)n1-c1ccc(F)cc1 showed a minimal effective dose of 100 mg/kg.
CCOc1ccc(NC(=O)N/N=C(\C)c2ccccc2O)cc1 showed a minimal effective dose of 100 mg/kg.
In the case of CCOc1ccc(NC(=O)N/N=C/c2ccccc2O)cc1, the minimal effective dose was 300 mg/kg.
O=c1snc(Nc2cccc3ccccc23)n1-c1cccc2ccccc12 was tested, and the minimal effective dose was 100 mg/kg.
Fc1ccc(NC2=NSC(Nc3ccc(F)cc3)N2)cc1 (centres undefined) showed a minimal effective dose of 100 mg/kg.
In the case of CCOc1ccc(NC(=O)N/N=C(\C)CC(C)C)cc1, the minimal effective dose was 100 mg/kg.
Work on c1cncc(NC2=NSC(Nc3cccnc3)N2)c1 (centres undefined) yielded a minimal effective dose of 300 mg/kg.
c1ccc2c(NC3=NSC(Nc4cccc5ccccc45)N3)cccc2c1 (centres undefined) showed a minimal effective dose of 100 mg/kg.
CNC(=S)Nc1ccc(S(=O)(=O)Nc2ccc(Br)cc2)cc1 showed a minimal effective dose of 300 mg/kg.
Work on CCOc1ccc(NC(=O)N/N=C(\C)c2ccc(O)cc2)cc1 yielded a minimal effective dose of 100 mg/kg.
CCOc1ccc(Nc2nsc(=O)n2-c2ccc(OCC)cc2)cc1 was tested, and the minimal effective dose was 100 mg/kg.
O=C(NN=C1c2ccccc2C(=O)c2ccccc21)Nc1ccc([N+](=O)[O-])cc1 gave a minimal effective dose of 300 mg/kg.
With O=C(N/N=C/c1ccccc1Cl)Nc1ccc(Br)cc1 the minimal effective dose was 300 mg/kg.
C/C(=N\NC(=O)Nc1ccc(Br)cc1)c1ccccc1 gave a minimal effective dose of 100 mg/kg.
O=C(NN=C(c1ccccc1)c1ccccc1)Nc1ccc(Br)cc1 was tested, and the minimal effective dose was 300 mg/kg.
Molecule Cc1ccc(NC(=S)Nc2ccc(S(=O)(=O)Nc3ccc(Cl)cc3)cc2)cc1 has a minimal effective dose of 100 mg/kg.
Cc1ccc(NC(=S)Nc2ccc(S(=O)(=O)Nc3ccc(Br)cc3)cc2)cc1 showed a minimal effective dose of 100 mg/kg.
In the case of CCOc1ccc(NC2=NSC(Nc3ccc(OCC)cc3)N2)cc1 (centres undefined), the minimal effective dose was 100 mg/kg.
In the case of CNC(=S)Nc1ccc(S(=O)(=O)Nc2nc3ccc(OC)cc3s2)cc1, the minimal effective dose was 300 mg/kg.
CCOc1ccc(NC(=O)N/N=C/c2ccccc2Cl)cc1 was tested, and the minimal effective dose was 100 mg/kg.
CN(C)c1ccc(/C=N/NC(=O)Nc2ccc(Br)cc2)cc1 was tested, and the minimal effective dose was 300 mg/kg.
In the case of O=c1snc(Nc2ncccn2)n1-c1ncccn1, the minimal effective dose was 300 mg/kg.
With C/C(=N\NC(=O)Nc1ccc(Br)cc1)c1ccc([N+](=O)[O-])cc1 the minimal effective dose was 300 mg/kg.
In the case of C/C(=N\NC(=O)Nc1ccc(Br)cc1)c1ccc(O)cc1, the minimal effective dose was 300 mg/kg.
CNC(=S)Nc1ccc(S(=O)(=O)Nc2ccc(Cl)cc2)cc1 gave a minimal effective dose of 300 mg/kg.
Molecule O=c1snc(Nc2ccccn2)n1-c1ccccn1 has a minimal effective dose of 300 mg/kg.
With O=C1C=CC(=NNC(=O)Nc2ccc([N+](=O)[O-])cc2)C=C1 the minimal effective dose was 300 mg/kg.
COc1ccc(/C=N/NC(=O)Nc2ccc(Br)cc2)cc1OC was tested, and the minimal effective dose was 300 mg/kg.
Molecule O=c1snc(Nc2ccncc2)n1-c1ccncc1 has a minimal effective dose of 300 mg/kg.
